Data as given in ChEMBL document CHEMBL5653631, “A Potent and Selective ULK1 Inhibitor Suppresses Autophagy and Sensitizes Cancer Cells to Nutrient Stress” (iScience, 2018).

What was measured:
[1] = target: Wee1-like protein kinase 2 (Homo sapiens) (UniProt P0C1S8); experiment: Inhibition of human recombinant Wee1B at 40 nM related to control ULK1
[2] = target: Receptor tyrosine-protein kinase erbB-2 (Homo sapiens) (UniProt P04626); experiment: Inhibition of human recombinant ErbB2 at 15 nM in presence of ATP by radiometric assay relative to control
[3] = target: Glycogen synthase kinase-3 alpha (Homo sapiens) (UniProt P49840); experiment: Inhibition of human recombinant GSK3A at 15 nM in presence of ATP by radiometric assay relative to control
[4] = target: Wee1-like protein kinase (Homo sapiens) (UniProt P30291); experiment: Inhibition of human recombinant Wee1 at 15 nM in presence of ATP by radiometric assay relative to control
[5] = target: Serine/threonine-protein kinase 25 (Homo sapiens) (UniProt O00506); experiment: Inhibition of human recombinant YSK1 at 15 nM in presence of ATP by radiometric assay relative to control
[6] = target: Cyclin-dependent kinase 12 (Homo sapiens) (UniProt Q9NYV4); experiment: Inhibition of human recombinant CRK7 at 15 nM related to control ULK1
[7] = target: Serine/threonine-protein kinase mTOR (Homo sapiens) (UniProt P42345); experiment: Inhibition of human recombinant FRAP at 500 nM in presence of ATP by radiometric assay relative to control
[8] = target: T1, Inhibitor of nuclear factor kappa-B kinase subunit epsilon (Homo sapiens) (UniProt Q14164); experiment: Inhibition of human recombinant IKKe at 500 nM in presence of ATP by radiometric assay relative to control
T1 sequence (whole entry): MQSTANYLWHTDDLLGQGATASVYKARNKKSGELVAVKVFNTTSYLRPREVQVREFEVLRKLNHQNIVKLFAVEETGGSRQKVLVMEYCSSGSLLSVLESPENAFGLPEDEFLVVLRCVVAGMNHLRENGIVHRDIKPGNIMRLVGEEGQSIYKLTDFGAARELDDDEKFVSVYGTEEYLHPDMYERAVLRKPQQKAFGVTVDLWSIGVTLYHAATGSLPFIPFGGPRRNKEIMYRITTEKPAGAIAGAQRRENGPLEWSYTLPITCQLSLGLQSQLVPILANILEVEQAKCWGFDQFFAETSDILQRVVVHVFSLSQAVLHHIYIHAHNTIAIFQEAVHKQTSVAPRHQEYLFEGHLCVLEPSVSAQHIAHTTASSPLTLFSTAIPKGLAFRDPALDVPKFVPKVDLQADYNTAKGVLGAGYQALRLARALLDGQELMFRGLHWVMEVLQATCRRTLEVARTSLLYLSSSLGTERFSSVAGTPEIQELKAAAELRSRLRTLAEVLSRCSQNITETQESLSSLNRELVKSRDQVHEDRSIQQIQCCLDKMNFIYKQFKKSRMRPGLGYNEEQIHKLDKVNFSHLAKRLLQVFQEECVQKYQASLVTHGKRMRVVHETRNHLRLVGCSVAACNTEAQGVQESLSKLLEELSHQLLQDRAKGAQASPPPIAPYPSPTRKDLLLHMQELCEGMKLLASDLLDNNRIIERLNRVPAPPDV

[9] = target: Serine/threonine-protein kinase 26 (Homo sapiens) (UniProt Q9P289); experiment: Inhibition of human recombinant MST4 at 500 nM in presence of ATP by radiometric assay relative to control
[10] = target: T2, Serine/threonine-protein kinase ULK2 (Homo sapiens) (UniProt Q8IYT8); experiment: Inhibition of human recombinant ULK2 at 500 nM in presence of ATP by radiometric assay relative to control
T2 sequence (whole entry): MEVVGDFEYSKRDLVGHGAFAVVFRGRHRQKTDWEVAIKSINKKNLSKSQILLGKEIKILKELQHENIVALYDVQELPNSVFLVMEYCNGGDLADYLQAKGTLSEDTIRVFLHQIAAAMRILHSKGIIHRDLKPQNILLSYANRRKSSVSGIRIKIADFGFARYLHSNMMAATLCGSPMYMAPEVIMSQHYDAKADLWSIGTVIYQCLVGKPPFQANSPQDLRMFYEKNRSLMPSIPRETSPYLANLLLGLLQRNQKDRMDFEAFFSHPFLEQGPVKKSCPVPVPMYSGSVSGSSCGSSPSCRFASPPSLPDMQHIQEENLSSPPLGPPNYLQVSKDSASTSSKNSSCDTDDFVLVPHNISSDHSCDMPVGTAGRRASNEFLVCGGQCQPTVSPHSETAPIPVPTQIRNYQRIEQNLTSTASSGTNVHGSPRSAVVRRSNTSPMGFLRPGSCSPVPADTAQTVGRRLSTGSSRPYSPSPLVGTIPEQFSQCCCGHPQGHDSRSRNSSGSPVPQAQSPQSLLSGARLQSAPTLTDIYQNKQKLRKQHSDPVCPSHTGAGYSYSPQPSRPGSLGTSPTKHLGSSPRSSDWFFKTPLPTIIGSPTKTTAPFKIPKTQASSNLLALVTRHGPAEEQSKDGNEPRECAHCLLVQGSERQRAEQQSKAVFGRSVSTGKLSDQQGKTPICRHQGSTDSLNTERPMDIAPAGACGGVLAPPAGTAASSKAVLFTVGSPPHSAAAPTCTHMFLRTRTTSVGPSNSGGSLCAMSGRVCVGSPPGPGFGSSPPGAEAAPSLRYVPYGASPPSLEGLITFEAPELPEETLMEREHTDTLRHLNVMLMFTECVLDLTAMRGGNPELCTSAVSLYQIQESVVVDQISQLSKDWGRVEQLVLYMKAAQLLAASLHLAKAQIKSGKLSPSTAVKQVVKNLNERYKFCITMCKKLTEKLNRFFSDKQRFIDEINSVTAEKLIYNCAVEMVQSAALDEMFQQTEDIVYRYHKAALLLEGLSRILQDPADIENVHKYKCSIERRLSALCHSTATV

[11] = target: T3, Serine/threonine-protein kinase Chk1 (Homo sapiens) (UniProt O14757); experiment: Inhibition of human recombinant CHK1 at 500 nM related to control ULK1
T3 sequence (whole entry): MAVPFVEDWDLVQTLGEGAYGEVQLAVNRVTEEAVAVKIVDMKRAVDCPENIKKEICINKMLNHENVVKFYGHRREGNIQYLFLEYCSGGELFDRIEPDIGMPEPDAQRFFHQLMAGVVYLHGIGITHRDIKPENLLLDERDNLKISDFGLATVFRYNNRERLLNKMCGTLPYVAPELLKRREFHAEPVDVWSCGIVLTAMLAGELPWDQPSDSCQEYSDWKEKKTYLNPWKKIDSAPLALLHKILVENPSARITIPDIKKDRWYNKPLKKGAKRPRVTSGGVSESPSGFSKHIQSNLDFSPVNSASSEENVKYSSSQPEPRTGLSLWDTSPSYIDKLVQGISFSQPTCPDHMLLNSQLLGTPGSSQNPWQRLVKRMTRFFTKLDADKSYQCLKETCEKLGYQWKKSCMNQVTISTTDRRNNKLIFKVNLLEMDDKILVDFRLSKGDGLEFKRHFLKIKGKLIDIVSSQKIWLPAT

Chain of Wee1-like protein kinase 2 (Homo sapiens) (P0C1S8 whole entry, looked up): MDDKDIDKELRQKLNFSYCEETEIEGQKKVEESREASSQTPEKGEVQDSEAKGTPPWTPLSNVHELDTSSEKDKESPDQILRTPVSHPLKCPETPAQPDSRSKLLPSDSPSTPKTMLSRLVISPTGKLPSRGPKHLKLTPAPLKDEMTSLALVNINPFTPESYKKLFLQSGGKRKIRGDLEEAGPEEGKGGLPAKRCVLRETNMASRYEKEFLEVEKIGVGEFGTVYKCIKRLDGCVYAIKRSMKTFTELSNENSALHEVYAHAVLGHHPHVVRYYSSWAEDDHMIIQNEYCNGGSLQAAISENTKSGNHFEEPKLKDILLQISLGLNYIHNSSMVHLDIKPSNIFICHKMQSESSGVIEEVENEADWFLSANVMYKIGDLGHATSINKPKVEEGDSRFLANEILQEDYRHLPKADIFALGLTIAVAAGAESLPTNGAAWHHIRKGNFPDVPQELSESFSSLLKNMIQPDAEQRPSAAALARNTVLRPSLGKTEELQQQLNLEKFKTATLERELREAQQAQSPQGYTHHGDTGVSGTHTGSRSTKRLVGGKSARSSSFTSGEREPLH
Chain of Serine/threonine-protein kinase 26 (Homo sapiens) (Q9P289 2-416 limits assumed): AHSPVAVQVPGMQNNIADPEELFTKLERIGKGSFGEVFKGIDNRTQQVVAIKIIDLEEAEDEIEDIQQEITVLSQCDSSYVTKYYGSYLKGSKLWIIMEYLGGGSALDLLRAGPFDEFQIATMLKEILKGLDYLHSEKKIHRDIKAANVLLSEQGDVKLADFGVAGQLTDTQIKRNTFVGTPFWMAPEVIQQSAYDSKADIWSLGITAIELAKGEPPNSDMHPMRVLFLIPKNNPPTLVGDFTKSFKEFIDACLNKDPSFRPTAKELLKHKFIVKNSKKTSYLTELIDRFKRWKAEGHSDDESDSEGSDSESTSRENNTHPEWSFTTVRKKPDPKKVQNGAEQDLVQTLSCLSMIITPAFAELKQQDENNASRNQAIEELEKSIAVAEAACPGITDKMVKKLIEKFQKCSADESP
Chain of Glycogen synthase kinase-3 alpha (Homo sapiens) (P49840 2-483 limits assumed): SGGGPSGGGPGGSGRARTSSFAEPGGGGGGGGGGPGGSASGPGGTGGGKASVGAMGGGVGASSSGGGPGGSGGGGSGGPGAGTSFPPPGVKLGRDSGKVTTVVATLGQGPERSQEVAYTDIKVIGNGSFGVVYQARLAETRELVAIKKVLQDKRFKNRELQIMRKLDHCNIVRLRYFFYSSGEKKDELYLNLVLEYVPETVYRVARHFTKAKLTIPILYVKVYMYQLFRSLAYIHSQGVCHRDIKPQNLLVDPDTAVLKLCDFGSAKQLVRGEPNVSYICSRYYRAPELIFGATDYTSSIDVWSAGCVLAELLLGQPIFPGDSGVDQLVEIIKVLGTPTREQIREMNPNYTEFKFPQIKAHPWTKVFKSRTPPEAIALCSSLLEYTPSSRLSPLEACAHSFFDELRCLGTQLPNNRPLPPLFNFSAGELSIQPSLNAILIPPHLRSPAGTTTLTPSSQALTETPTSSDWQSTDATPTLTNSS
Chain of Serine/threonine-protein kinase 25 (Homo sapiens) (O00506 whole entry, looked up): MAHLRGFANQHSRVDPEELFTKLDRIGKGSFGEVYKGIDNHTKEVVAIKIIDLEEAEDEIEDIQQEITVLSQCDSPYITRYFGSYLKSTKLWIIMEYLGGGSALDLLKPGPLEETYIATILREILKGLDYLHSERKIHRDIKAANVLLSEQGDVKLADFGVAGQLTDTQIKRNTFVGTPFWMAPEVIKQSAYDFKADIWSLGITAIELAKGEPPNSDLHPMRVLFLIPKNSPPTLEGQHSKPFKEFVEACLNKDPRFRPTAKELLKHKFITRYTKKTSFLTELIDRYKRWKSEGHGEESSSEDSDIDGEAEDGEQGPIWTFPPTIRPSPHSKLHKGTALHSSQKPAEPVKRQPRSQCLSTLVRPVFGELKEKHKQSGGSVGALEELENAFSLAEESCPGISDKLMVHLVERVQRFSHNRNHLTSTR
Chain of Wee1-like protein kinase (Homo sapiens) (P30291 whole entry, looked up): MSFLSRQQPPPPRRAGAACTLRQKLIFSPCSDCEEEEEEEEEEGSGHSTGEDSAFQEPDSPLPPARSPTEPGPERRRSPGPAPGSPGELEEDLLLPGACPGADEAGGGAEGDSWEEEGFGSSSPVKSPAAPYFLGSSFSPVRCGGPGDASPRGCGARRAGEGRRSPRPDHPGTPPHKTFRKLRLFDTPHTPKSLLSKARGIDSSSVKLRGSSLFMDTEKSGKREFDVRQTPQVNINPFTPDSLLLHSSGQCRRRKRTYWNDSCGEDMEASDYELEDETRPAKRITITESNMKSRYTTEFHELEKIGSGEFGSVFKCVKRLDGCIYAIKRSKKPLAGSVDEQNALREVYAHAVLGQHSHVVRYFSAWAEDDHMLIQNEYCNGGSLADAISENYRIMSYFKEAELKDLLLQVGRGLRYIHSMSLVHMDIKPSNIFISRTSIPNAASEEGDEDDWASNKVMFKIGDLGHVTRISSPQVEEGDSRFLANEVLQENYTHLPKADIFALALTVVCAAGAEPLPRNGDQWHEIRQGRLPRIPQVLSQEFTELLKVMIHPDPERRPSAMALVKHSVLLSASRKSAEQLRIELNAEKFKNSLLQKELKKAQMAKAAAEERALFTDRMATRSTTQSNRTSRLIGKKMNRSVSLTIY
Chain of Receptor tyrosine-protein kinase erbB-2 (Homo sapiens) (P04626 whole entry): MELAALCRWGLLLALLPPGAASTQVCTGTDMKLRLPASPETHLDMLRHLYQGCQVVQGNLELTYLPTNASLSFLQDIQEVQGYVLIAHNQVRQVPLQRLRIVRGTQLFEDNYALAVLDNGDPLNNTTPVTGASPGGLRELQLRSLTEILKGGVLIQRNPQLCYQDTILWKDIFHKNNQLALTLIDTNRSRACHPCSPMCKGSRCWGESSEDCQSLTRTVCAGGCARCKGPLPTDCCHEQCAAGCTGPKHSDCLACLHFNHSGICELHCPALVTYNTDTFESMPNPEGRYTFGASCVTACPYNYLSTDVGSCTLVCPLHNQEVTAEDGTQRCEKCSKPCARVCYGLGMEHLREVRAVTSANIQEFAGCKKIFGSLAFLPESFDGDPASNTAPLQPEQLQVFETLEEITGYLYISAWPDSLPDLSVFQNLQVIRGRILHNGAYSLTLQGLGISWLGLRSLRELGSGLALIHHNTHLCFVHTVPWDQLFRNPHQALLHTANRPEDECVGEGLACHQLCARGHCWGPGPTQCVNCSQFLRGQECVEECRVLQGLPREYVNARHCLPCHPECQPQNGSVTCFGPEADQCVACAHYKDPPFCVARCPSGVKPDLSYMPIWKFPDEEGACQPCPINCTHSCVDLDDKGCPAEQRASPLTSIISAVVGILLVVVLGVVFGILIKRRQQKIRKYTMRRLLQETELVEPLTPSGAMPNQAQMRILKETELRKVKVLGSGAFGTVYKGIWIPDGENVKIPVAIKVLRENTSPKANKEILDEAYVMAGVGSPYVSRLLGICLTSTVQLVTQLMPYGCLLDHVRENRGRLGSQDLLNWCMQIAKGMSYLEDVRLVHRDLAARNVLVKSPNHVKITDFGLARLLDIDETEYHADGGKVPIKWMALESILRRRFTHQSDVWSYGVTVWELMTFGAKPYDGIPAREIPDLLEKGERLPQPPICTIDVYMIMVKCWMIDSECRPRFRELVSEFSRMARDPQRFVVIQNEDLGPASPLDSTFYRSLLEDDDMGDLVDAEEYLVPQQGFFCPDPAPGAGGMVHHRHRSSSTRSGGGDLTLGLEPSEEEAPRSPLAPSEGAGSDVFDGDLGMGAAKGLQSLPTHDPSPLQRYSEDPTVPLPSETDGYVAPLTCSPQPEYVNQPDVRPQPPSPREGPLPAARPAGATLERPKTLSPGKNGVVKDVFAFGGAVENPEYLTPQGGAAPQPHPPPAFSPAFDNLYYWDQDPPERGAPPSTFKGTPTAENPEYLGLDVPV

## O=C(N[C@@H](C1CC1)C(F)(F)F)c1cc(-c2cnn3cc(-c4ccc(F)cc4)cnc23)cs1
[1]
  fold change (FC): 0

## CC(C)[C@H](NC(=O)c1cc(-c2cnn3cc(-c4ccc(OCCN5CCCCC5)cc4)cnc23)cs1)C(F)(F)F
[2]
  inhibition: 0%
[3]
  inhibition: 0%
[4]
  inhibition: 15%
[5]
  inhibition: 0%
[6]
  fold change (FC): 0.05

## CNC(=O)c1ccccc1Oc1nc(Nc2cc(OC)c(OC)c(OC)c2)ncc1Br
[7]
  inhibition: 0%
[8]
  inhibition: 0%
[9]
  inhibition: 0%
[10]
  inhibition: 48%
[11]
  fold change (FC): 0.05
